This passage reports TGI and GI50 results from PubChem BioAssay (NCI).

Some test systems named below: KM20L2 colon; DLD-1 colon; M19-MEL melanoma; XF 498 CNS; CAKI-1 renal; HS 578T breast; MDA-MB-435; MCF7 breast; BT-549 breast; DU-145 prostate; PC-3 prostate; NCI/ADR-RES ovarian.
What all share (experiment): NCI tumour cell line growth inhibition, 48 h

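Assay format: 96-well plates, 48-hour exposure. Here, GI50 denotes the concentration required for 50% inhibition of growth. Definition used: TGI = concentration required for complete inhibition of growth.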

Take `CCOC(=O)C(=O)Nc1cccc(C)c1C`: the TGI in the assay with KM20L2 colon, with DLD-1 colon, in the assay with M19-MEL melanoma, in the assay on XF 498 CNS and with CAKI-1 renal was above 100 µM throughout.
Compound `Cc1nc(N(CCO)CCO)c2sc(=S)n(-c3ccccc3)c2n1` gave a TGI in the assay on DLD-1 colon above 100 µM.
Take `COC(=O)C1=C(O)C(C(=O)OC)[C@@]2(O)[C@@H](C(=O)OC)CC[C@@H]1[C@@H]2C(=O)OC` (some centres not stated): the TGI in the assay on HS 578T breast was 33.9 µM; with MDA-MB-435, above 100 µM; in the assay on MCF7 breast, above 100 µM; in the assay on BT-549 breast, above 100 µM; in the assay with DU-145 prostate it was above 100 µM.
As to `BrC1=CN2C[n+]3cc(Br)c4ccccc4c3N=C2c2ccccc21`, the TGI in the assay on PC-3 prostate was 33.9 µM; in the assay with NCI/ADR-RES ovarian it was above 100 µM; in the assay on HS 578T breast it was 61 µM; in the assay on MDA-MB-435, 19.2 µM; with MCF7 breast, 21.5 µM; in the assay with BT-549 breast it was 37.2 µM. Besides, the TGI with CAKI-1 renal stood at 48.1 µM; in the assay on DU-145 prostate it was 33.3 µM.
For the compound `COc1cc(C2S/C(=C/c3ccccc3)C(=O)N2c2ccccc2Cl)cc(OC)c1OC` (configuration not stated), the TGI was 58.2 µM with PC-3 prostate; 94.7 µM in the assay on NCI/ADR-RES ovarian; 47.5 µM in the assay with HS 578T breast; 56.7 µM with MDA-MB-435; above 100 µM in the assay on MCF7 breast; above 100 µM in the assay with BT-549 breast. The compound also came in with a TGI in the assay on CAKI-1 renal above 100 µM.
As to `CN(CCO)/N=N/c1nc[nH]c1C(N)=O`, the TGI in the assay with KM20L2 colon, with DLD-1 colon, in the assay with M19-MEL melanoma and in the assay with XF 498 CNS was above 100 µM throughout.
With `C/C([O-])=C(/c1nc(-c2ccc([N+](=O)[O-])o2)no1)[n+]1cc(C)ccc1C`, the TGI in the assay with KM20L2 colon was 27.5 µM; with DLD-1 colon it was 24.7 µM; in the assay on M19-MEL melanoma it was 17.6 µM; in the assay on NCI/ADR-RES ovarian, above 100 µM; in the assay with MCF7 breast, 16.2 µM; with XF 498 CNS, 21.1 µM. Also, the TGI in the assay on CAKI-1 renal turned out to be 28.7 µM.
As to `Cc1ccc(S(=O)(=O)Nc2cc(Sc3ccccc3)c(O)c3ccccc23)cc1`, the GI50 in the assay on PC-3 prostate was 2.2 µM; with NCI/ADR-RES ovarian, 3 µM; with HS 578T breast it was 3.27 µM; with MDA-MB-435, 1.8 µM; in the assay with MCF7 breast, 1.95 µM; with BT-549 breast, 11.9 µM. Further, the GI50 was 3.16 µM in the assay with CAKI-1 renal and 3.83 µM in the assay with DU-145 prostate. For the same compound, the TGI amounted to 9.29 µM in the assay on PC-3 prostate; 9.31 µM with NCI/ADR-RES ovarian; 10.8 µM in the assay with HS 578T breast; 3.26 µM with MDA-MB-435; 4.79 µM with MCF7 breast; 24.2 µM in the assay on BT-549 breast. In addition, the results for the TGI in the assay with CAKI-1 renal and in the assay with DU-145 prostate were 9.19 µM and 13.6 µM, respectively.
Consider `COc1cc(Cc2ccc3c(c2C#N)N(C)c2ccccc2S3)cc(OC)c1OC`, for which the TGI in the assay with KM20L2 colon, with DLD-1 colon, in the assay on M19-MEL melanoma and in the assay with XF 498 CNS was above 100 µM in each case.
